From US10738057B2, “Tertiary alcohols as PI3K-γ inhibitors” (Incyte Corporation, priority 2017, dated 2020)
Where a name gives a salt, the structure may show the parent alone. Read-outs that look alike come from different tables or passages of the source.

How the values were obtained:
[1] = target: PI3Kδ (p110δ/p85α) Recombinant Human Protein (Homo sapiens (Human), UniProt O00329); experiment: PI3Kδ scintillation proximity assay; format: biochemical; conditions: 20 μM PIP2, 2 μM ATP, 3.4 nM PI3Kδ, 120 min, room temperature; read-out: PI3Kδ IC50
Summary of the method: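 Recombinant human p110δ/p85α was run at room temperature in 20 mM MOPS pH 6.7, 10 mM MgCl2, 5 mM DTT, 0.03% CHAPS, 2% DMSO. Substrates were 20 µM PIP2 and 2 µM ATP with [γ-33P]ATP. Product was captured overnight on WGA SPA beads and counted by scintillation; IC50 fitted from percent of solvent control versus log concentration.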

[2] = target: PI3Kγ (p110γ) Recombinant Human Protein (Homo sapiens (Human), UniProt P48736); experiment: PI3K-γ scintillation proximity assay; format: biochemical; conditions: 20 μM PIP2, 2 μM ATP, 13 nM PI3Kγ, 120 min, room temperature
Summary of the method: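 Radiometric SPA in 20 mM MOPS pH 6.7, 10 mM MgCl2, 5 mM DTT, 0.03% CHAPS, 2% DMSO. Stopped with EDTA and WGA SPA beads for scintillation counting. IC50 fitted from % solvent-control activity versus log concentration.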

[3] = tested on: Phosphorylated Ribosomal Protein S6 (RPS6) in THP-1 cells; experiment: THP-1 RPS6 ELISA assay; format: cell-based, Human; conditions: serum starved, 2 h compound, 10 nM MCP-1 for 15 min, phospho-RPS6 ELISA, read-out: PI3Kγ_THP1_RPS6_ELISA IC50
Protocol: Example A. THP-1 RPS6 ELISA Assay
To measure the Phosphorylated Ribosomal Protein S6 (RPS6) in cell lysates, THP-1 cells (Human Acute Monocytic Leukemia) are purchased from ATCC (Manassas, Va.) and maintained in RPMI with 10% FBS (Gibco/Life Technologies, Carlsbad, Calif.). For the assay, THP-1 cells are serum starved overnight in RPMI, then plated in RPMI (2×10^5 cells/well in 90 μL) into 96-well flat-bottom tissue culture treated plates (Corning, Corning, N.Y.), in the presence or absence of a concentration range of test compounds. Covered plates are incubated for 2 hours at 37° C., 5% CO2 then treated with or without 10 nM MCP-1 (MYBioSource, San Diego, Calif.) for 15 minutes at 37° C., 5% CO2. Plates are centrifuged at 1600 RPM and supernatants are removed. Cells are lysed in Lysis Buffer (Cell Signaling, Danvers, Mass.) with Protease Inhibitor (Calbiochem/EMD, Germany), PMSF (Sigma, St Louis Mo.), HALTS (Thermo Fisher, Rockford, Ill.) for 30 min on wet ice. Cell lysates are frozen at −80° C. before testing. The lysates are tested in the Human/Mouse/Rat Phospho-RPS6 ELISA (R&D Systems, Inc. Minn, Minn.). The plate is measured using a microplate reader (SpectraMax M5—Molecular Devices, LLC Sunnyvale, Calif.) set to 450 nm with a wavelength correction of 540. IC50 determination is performed by fitting the curve of inhibitor percent inhibition versus the log of the inhibitor concentration using the GraphPad Prism 5.0 software.

[4] = Homo sapiens, THP-1, THP-1 cells

Chain of PI3Kδ (p110δ/p85α) Recombinant Human Protein (O00329 whole entry): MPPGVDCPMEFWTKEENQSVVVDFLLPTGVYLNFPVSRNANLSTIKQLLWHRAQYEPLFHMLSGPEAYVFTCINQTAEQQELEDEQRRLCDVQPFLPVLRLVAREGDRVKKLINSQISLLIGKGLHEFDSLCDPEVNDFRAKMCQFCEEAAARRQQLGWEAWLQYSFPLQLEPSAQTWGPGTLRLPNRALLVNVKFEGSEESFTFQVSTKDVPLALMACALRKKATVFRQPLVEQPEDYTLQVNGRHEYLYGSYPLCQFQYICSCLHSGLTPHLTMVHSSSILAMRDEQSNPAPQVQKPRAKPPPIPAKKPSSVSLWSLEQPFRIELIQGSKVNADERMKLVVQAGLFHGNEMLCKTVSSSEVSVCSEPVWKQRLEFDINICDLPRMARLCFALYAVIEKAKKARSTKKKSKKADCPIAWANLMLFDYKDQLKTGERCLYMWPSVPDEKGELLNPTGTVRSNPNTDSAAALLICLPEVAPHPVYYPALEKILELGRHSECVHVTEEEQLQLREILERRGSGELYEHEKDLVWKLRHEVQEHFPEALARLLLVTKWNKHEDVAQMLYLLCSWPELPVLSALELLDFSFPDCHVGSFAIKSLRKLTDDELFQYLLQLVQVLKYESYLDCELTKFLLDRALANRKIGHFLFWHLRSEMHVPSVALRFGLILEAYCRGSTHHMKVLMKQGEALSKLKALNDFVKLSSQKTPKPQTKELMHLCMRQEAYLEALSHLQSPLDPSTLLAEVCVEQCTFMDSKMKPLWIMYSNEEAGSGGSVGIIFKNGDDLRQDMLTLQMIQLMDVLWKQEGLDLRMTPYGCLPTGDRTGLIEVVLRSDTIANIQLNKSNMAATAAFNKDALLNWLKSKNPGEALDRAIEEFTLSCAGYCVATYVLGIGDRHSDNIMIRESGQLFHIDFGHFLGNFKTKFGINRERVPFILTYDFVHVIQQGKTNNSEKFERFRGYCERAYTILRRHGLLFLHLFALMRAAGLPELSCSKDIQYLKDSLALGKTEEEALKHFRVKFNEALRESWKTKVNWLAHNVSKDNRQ
Chain of PI3Kδ (p110δ/p85α) Recombinant Human Protein (P27986 whole entry partner): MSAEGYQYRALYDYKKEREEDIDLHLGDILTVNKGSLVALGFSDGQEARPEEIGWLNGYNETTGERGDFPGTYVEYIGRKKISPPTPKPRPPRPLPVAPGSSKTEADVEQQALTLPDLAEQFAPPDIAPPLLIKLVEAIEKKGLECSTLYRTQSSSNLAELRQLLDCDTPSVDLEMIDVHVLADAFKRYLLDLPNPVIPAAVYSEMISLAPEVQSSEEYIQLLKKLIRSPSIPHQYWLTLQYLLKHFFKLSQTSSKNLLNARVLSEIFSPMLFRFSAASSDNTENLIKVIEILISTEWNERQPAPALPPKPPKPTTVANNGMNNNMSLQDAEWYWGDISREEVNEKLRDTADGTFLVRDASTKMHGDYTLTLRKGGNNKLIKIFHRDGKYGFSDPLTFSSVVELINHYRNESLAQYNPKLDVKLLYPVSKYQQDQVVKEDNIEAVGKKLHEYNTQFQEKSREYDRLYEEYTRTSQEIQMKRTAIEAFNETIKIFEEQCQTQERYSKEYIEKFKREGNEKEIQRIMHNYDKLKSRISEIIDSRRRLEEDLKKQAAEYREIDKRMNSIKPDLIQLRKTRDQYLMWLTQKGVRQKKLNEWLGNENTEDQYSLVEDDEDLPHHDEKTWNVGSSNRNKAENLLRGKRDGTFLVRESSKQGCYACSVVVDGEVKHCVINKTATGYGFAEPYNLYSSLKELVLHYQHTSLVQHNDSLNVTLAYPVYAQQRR
Chain of PI3Kγ (p110γ) Recombinant Human Protein (P48736 whole entry): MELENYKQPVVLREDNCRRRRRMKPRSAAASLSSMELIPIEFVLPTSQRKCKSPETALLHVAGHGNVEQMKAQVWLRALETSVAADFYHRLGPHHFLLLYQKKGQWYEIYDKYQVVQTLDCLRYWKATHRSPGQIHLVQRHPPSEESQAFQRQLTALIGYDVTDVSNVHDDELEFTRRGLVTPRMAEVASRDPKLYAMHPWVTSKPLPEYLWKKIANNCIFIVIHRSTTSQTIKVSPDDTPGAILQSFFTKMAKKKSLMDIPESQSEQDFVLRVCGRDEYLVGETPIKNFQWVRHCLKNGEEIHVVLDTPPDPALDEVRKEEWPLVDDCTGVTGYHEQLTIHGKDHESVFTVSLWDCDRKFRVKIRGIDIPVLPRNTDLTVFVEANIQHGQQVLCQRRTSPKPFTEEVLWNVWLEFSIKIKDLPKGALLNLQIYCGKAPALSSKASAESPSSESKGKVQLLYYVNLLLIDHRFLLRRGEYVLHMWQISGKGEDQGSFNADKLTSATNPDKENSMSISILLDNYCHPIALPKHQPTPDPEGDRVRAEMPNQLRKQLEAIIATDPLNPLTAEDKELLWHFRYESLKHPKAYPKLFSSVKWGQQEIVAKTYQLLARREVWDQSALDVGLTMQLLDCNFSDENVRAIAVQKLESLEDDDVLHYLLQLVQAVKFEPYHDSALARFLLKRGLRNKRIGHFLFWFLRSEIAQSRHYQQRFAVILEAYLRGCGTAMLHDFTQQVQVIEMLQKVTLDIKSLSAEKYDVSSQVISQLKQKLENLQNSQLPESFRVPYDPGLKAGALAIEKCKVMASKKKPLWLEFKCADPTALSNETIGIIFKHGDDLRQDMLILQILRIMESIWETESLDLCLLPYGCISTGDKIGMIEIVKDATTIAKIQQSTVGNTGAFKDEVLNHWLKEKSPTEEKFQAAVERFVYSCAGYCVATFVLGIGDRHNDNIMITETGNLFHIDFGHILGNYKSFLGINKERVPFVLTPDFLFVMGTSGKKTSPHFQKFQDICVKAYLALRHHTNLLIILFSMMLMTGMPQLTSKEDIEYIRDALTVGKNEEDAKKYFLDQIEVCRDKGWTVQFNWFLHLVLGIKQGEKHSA

| SMILES | IC50 [1] [nM] | IC50 [2] [nM] | IC50 [3, 4] [nM] | IC50 ([3]; THP-1 cells) [nM] |
| --- | --- | --- | --- | --- |
| Cc1ncc(-c2nc(N)c3ncc(-c4cc(C(C)(O)C(F)F)ccc4C)n3n2)o1 (single isomer, unassigned) [Example 52, 2-(3-(4-Amino-2-(2-methyloxazol-5-yl)imidazo[2,1-f][1,2,4]triazin-7-yl)-4-methylphenyl)-1,1-difluoropropan-2-ol trifluoroacetate salt] | 100 to 500 | < 100 | 100 to 500 |  |
| Cc1ccc(C(C)(O)C(F)(F)C(F)(F)F)cc1-c1cnc2c(N)nc(C(F)(F)F)cn12 (single isomer, unassigned) [Example 60, 2-(3-(8-Amino-6-(trifluoromethyl)imidazo[1,2-a]pyrazin-3-yl)-4-methylphenyl)-3,3,4,4,4-pentafluorobutan-2-ol] | 500 to 2000 | < 100 | > 1000 |  |
| Cc1ccc(C(C)(O)C(F)(F)F)cc1-c1cnc2c(N)nc(C(=O)NCC(C)(C)O)cn12 (single isomer, unassigned) [Example 63, 8-amino-N-(2-hydroxy-2-methylpropyl)-3-(2-methyl-5-(1,1,1-trifluoro-2-hydroxypropan-2-yl)phenyl)imidazo[1,2-a]pyrazine-6-carboxamide] | 100 to 500 | < 100 |  | 100 to 500 |
| [2H]C([2H])([2H])n1nccc1-c1cn2c(-c3cc(C(O)(CO)C(F)(F)F)ccc3C)cnc2c(N)n1 (single isomer, unassigned) [Example 66, 2-(3-(8-Amino-6-(1-(methyl-d3)-1H-pyrazol-5-yl)imidazo[1,2-a]pyrazin-3-yl)-4-methylphenyl)-3,3,3-trifluoropropane-1,2-diol] | < 100 | < 100 | < 100 |  |
| Cc1ccc(C(O)(CO)C(F)(F)F)cc1-c1cnc2c(N)nc(C(F)(F)F)cn12 (single isomer, unassigned) [Example 72, 2-(3-(8-Amino-6-(trifluoromethyl)imidazo[1,2-a]pyrazin-3-yl)-4-methylphenyl)-3,3,3-trifluoropropane-1,2-diol] | 100 to 500 | < 100 |  | < 100 |
| Cc1ccc(C(O)(CO)C(F)(F)F)cc1-c1cnc2c(N)nc(C(F)(F)F)cn12 (single isomer, unassigned) [Example 73, 2-(3-(8-Amino-6-(trifluoromethyl)imidazo[1,2-a]pyrazin-3-yl)-4-methylphenyl)-3,3,3-trifluoropropane-1,2-diol] | 100 to 500 | < 100 |  | 500 to 1000 |
| Cc1ccc(C(C)(O)C(F)(F)F)cc1-c1cnc2c(N)nc(C(F)(F)F)nn12 (stereo not drawn) [Example 1, 2-(3-(4-Amino-2-(trifluoromethyl)imidazo[2,1-f][1,2,4]triazin-7-yl)-4-methylphenyl)-1,1,1-trifluoropropan-2-ol] | 100 to 500 | < 100 | 100 to 500 |  |
| Cc1nc(N)c2ncc(-c3cc(C(C)(O)C(F)(F)F)ccc3C)n2n1 (stereo not drawn) [Example 2, 2-(3-(4-Amino-2-methylimidazo[2,1-f][1,2,4]triazin-7-yl)-4-methylphenyl)-1,1,1-trifluoropropan-2-ol] | 500 to 2000 | < 100 | 500 to 1000 |  |
| Cc1ccc(C(C)(O)C(F)(F)F)cc1-c1cnc2c(N)nc(C(F)(F)F)cn12 (stereo not drawn) [Example 4, 2-(3-(8-Amino-6-(trifluoromethyl)imidazo[1,2-a]pyrazin-3-yl)-4-methylphenyl)-1,1,1-trifluoropropan-2-ol] | 100 to 500 | < 100 | 100 to 500 |  |
| COC(=O)c1cn2c(-c3cc(C(C)(O)C(F)(F)F)ccc3C)cnc2c(N)n1 (stereo not drawn) [Example 8, Methyl 8-amino-3-(2-methyl-5-(1,1,1-trifluoro-2-hydroxypropan-2-yl)phenyl)imidazo[1,2-a]pyrazine-6-carboxylate] | 500 to 2000 | < 100 | 500 to 1000 |  |
| CNC(=O)c1cn2c(-c3cc(C(C)(O)C(F)(F)F)ccc3C)cnc2c(N)n1 (stereo not drawn) [Example 9, 8-Amino-N-methyl-3-(2-methyl-5-(1,1,1-trifluoro-2-hydroxypropan-2-yl)phenyl)imidazo[1,2-a]pyrazine-6-carboxamide] | 100 to 500 | < 100 | 100 to 500 |  |
| Cc1ccc(C(C)(O)C(F)(F)F)cc1-c1cnc2c(N)nc(-c3ccnc(CO)c3)cn12 (stereo not drawn) [Example 10, 2-(3-(8-Amino-6-(2-(hydroxymethyl)pyridin-4-yl)imidazo[1,2-a]pyrazin-3-yl)-4-methylphenyl)-1,1,1-trifluoropropan-2-ol] | < 100 | < 100 | 100 to 500 |  |

Results, then the compound that gave them:

| IC50 [1] [nM] | IC50 [2] [nM] | IC50 [3, 4] [nM] | IC50 ([3]; THP-1 cells) [nM] | SMILES |
| --- | --- | --- | --- | --- |
| 100 to 500 | < 100 | 100 to 500 |  | CCOC(=O)C1CC1c1cn2c(-c3cc(C(C)(O)C(F)F)ccc3C)cnc2c(N)n1 (single isomer, unassigned) [Example 75, Ethyl 2-(8-amino-3-(5-(1,1-difluoro-2-hydroxypropan-2-yl)-2-methylphenyl)imidazo[1,2-a]pyrazin-6-yl)cyclopropane-1-carboxylate trifluoroacetate salt] |
| 500 to 2000 | < 100 | 100 to 500 |  | Cc1ccc(C(C)(O)C(F)F)cc1-c1cnc2c(N)nc(C3CC3CO)cn12 (single isomer, unassigned) [Example 79, 2-(3-(8-Amino-6-(2-(hydroxymethyl)cyclopropyl)imidazo[1,2-a]pyrazin-3-yl)-4-methylphenyl)-1,1-difluoropropan-2-ol] |
| 500 to 2000 | < 100 | > 1000 |  | Cc1ccc(C(C)(O)C(F)(F)F)cc1-c1cnc2c(N)nc(C(=O)N[C@@H](B(O)O)C3CCC3)cn12 (single isomer, unassigned) [Example 117] |
| 100 to 500 | < 100 | < 100 |  | Cc1ccc(C(C)(O)C(F)F)cc1-c1cnc2c(N)nc(-c3ccc(C(C)O)nc3)cn12 (single isomer, unassigned) [Example 136, 2-(3-(8-Amino-6-(6-(1-hydroxyethyl)pyridin-3-yl)imidazo[1,2-a]pyrazin-3-yl)-4-methylphenyl)-1,1-difluoropropan-2-ol] |
| < 100 | < 100 | < 100 |  | Cc1ccc(C(C)(O)C(F)(F)F)cc1-c1cnc2c(N)nc(C3CC(CO)C3)cn12 (single isomer, unassigned) [Example 207, 2-(3-(8-amino-6-(3-(hydroxymethyl)cyclobutyl)imidazo[1,2-a]pyrazin-3-yl)-4-methylphenyl)-1,1,1-trifluoropropan-2-ol trifluoroacetate] |
| < 100 | < 100 |  | < 100 | Cc1ccc(C(C)(O)C(F)(F)F)cc1-c1cnc2c(N)nc(C3CC(CO)C3)cn12 (single isomer, unassigned) [Example 208, 2-(3-(8-amino-6-(3-(hydroxymethyl)cyclobutyl)imidazo[1,2-a]pyrazin-3-yl)-4-methylphenyl)-1,1,1-trifluoropropan-2-ol trifluoroacetate] |
| 100 to 500 | < 100 | 100 to 500 |  | [2H]C([2H])([2H])c1ccc(C(O)(C(C)O)C(F)(F)F)cc1-c1cnc2c(N)nc(C(F)(F)F)cn12 (single isomer, unassigned) [Example 233, 2-(3-(8-Amino-6-(trifluoromethyl)imidazo[1,2-a]pyrazin-3-yl)-4-(methyl-d3)phenyl)-1,1,1-trifluorobutane-2,3-diol trifluoroacetate salt] |
| 100 to 500 | < 100 | 100 to 500 |  | [2H]C([2H])([2H])c1ccc(C(C)(O)C(F)(F)F)cc1-c1cnc2c(N)nc(C(C)(C)O)cn12 (single isomer, unassigned) [Example 253, 2-(3-(8-Amino-6-(2-hydroxypropan-2-yl)imidazo[1,2-a]pyrazin-3-yl)-4-(methyl-d3)phenyl)-1,1,1-trifluoropropan-2-ol trifluoroacetate salt] |
